# Measured values as given in US12612412B2, “Antiviral heterocyclic compounds” (Enanta Pharmaceuticals, Inc., priority 2021, dated 2026).
# System: genotype A, "Long" strain RSV
# Assay: RSV-A assay (CPE protection in Hep-2 cells, ATPlite readout)
# Type: cell-based, Human respiratory syncytial virus (HRSV)
# Conditions: RSV-A Long strain, MOI 0.1, CPE protection, read-out: Human RSV-A (“Long”) EC50
# Source text: Hep-2 cells, (originally derived from tumors grown in irradiated-cortisonised weanling rats that had been injected with epidermoid carcinoma tissue from the larynx of a person, but later found to be indistinguishable from HeLa cells by PCR DNA analysis), were used for the culturing of genotype A, “Long” strain RSV. Flasks were inoculated with RSV and viral stocks were collected once cytopathic effect (CPE) was greater than 90%. Viral stocks in 25% sucrose media were snap frozen using liquid nitrogen to increase viral stability. Viral stock titers were quantified by tissue culture infectious dose 50% (TCID50) using 8,000 cells per well and 3-fold viral dilutions across a 96-well plate, cultured for 4 days. Viral stock titers were also quantified by a plaque forming unit assay, as described elsewhere.
# Following extensive parameter testing, the final assay is run as follows: Hep-2 cells are seeded into the inner 60 wells of a 96-well plate at 8,000 cells per well in a volume of 50 μL using Growth Media (DMEM without phenol red, 1% L-Glut, 1% Penn/Strep, 1% nonessential amino acids, 10% heat-inactivated FBS). 2-fold serial dilutions of control and test compounds are added to the wells in duplicate in a total volume of 25 μL. Viral stock is then added to the wells at a multiplicity of infection (MOI) of 0.1 in a volume of 25 μL, bringing the total volume of each well to 100 μL. The MOI is calculated using the PFU/mL, or TCID50 if unavailable. Each 96-well plate has a control column of 6 wells with cells and virus but no compound (negative control, max CPE), a column with cells but no compound or virus (positive control, minimum CPE), and a column with no cells or virus or compound (background plate/reagent control). The control wells with cells but no virus are given an additional 25 μL of growth media containing an equal quantity of sucrose as those wells receiving the viral stock in order to keep consistent in media and volume conditions. The outer wells of the plate are filled with 125 μL of moat media (DMEM, 1% Penn/Strep) to act as a thermal and evaporative moat around the test wells. Following a 5-day incubation period, the plates are read using ATPlite (50 uL added per well), which quantifies the amount of ATP (a measure of cell health) present in each well. Assay plates are read using the Envision luminometer. […] EC50 ranges are as follows: A<0.2 μM; B>0.2 μM.
row,SMILES,EC50
1,COc1cc(C(=O)NC[C@@](O)(c2cc3c(c(-c4ccc(F)c(Br)c4F)n2)OC[C@]3(C)C(N)=O)C(F)(F)F)cc2cn(C3CC3)nc12 [Example 1220],< 200 nM

# Same assay, conditions: human respiratory syncytial virus, RSV-A Long strain, MOI 0.1, CPE protection, read-out: Human RSV-A (“Long”) EC50
row,SMILES,EC50
1,C[C@]1(C(N)=O)COc2c1cc([C@@](O)(CNC(=O)c1cc(OC3CC3)c3nn(C(F)F)cc3c1)C1CC1)nc2-c1cc(Cl)ccc1F [Example 1199],< 200 nM
2,COc1cc(C(=O)NC[C@](O)(c2cc3c(c(-c4cc(F)cc(F)c4)n2)OC[C@]3(C)C(N)=O)C2CC2)cc2cn(C3CC3)nc12 [Example 1276],< 200 nM
3,COc1cc(C(=O)NC[C@](O)(c2cc3c(c(-c4ccc(F)cc4)n2)OC[C@]3(C)C(=O)NCC(F)(F)F)C(F)(F)F)cc2cn(C3CC3)nc12 [Example 1173],< 200 nM
4,Cc1cc2cc(C(=O)NC[C@](O)(c3cc4c(c(-c5ccc6c(c5)OC(F)(F)O6)n3)OC[C@]4(C)C(N)=O)C3CC3)cc(OC3CC3)c2nc1Cl [Example 1079],< 200 nM
5,COc1cc(C(=O)NCC(O)(c2cc3c(c(-c4cc(F)c(Cl)c(Cl)c4)n2)OC[C@]3(C)C(N)=O)C(F)(F)F)cc2cn(C3CC3)nc12 (stereo partly drawn) [Example 1266],< 200 nM
6,COc1cc(C(=O)NC[C@](O)(c2cc3c(c(-c4ccc(F)c(Cl)c4)n2)OC[C@@]3(CF)C(N)=O)C(F)(F)F)ccc1OC1CC1 [Example 1048],> 200 nM
7,COc1cc(C(=O)NC[C@](O)(c2cc3c(c(-c4c(F)ccc(F)c4Cl)n2)OC[C@]3(C)C(N)=O)C(F)(F)F)cc2cn(C3CC3)nc12 [Example 1244],< 200 nM
8,COc1cc(C(=O)NC[C@](O)(c2cc3c(c(-c4c(F)ccc(F)c4F)n2)OC[C@]3(C)C(N)=O)C2CC2)cc2cn(C3CC3)nc12 [Example 1274],< 200 nM
9,COc1cc(C(=O)NC[C@](O)(c2cc3c(c(-c4ccc(F)cc4)n2)OC[C@]3(C)C(=O)NC2COC2)C(F)(F)F)cc2cn(C3CC3)nc12 [Example 1174],< 200 nM

# Same assay, conditions: human respiratory syncytial virus, genotype A “Long” strain RSV, MOI 0.1, CPE protection, read-out: Human RSV-A (“Long”)
row,SMILES,EC50
1,C[C@]1(C(N)=O)COc2c1cc([C@@](O)(CNC(=O)c1cc(OC3CC3)c3[nH]ccc3c1)C(F)(F)F)nc2-c1ccc(F)cc1 [Example 206],< 200 nM
2,C[C@]1(C(N)=O)COc2c1cc([C@@](O)(CNC(=O)c1ccnnc1)C(F)(F)F)nc2-c1ccc(F)cc1 [Example 406],> 200 nM
3,CCn1cc2cc(C(=O)NC[C@](O)(c3cc4c(c(-c5ccc(F)cc5)n3)OC[C@]4(C)C(N)=O)C(F)(F)F)cc(Cl)c2n1 [Example 173],< 200 nM
4,Cn1cc(C(=O)NC[C@](O)(c2cc3c(c(-c4ccc(F)cc4)n2)OC[C@]3(C)C(N)=O)C(F)(F)F)c(-c2ccccc2)n1 [Example 445],> 200 nM
5,CC[C@]1(C(N)=O)COc2c1cc([C@@](O)(CNC(=O)c1ccc(OC3CC3)c(OC)c1)C(F)(F)F)nc2-c1ccc(F)cc1 [Example 241],< 200 nM
6,COc1ccc2cc(C(=O)NC[C@](O)(c3cc4c(c(-c5ccc(F)cc5)n3)OC[C@]4(C)C(N)=O)C(F)(F)F)n(C)c2c1 [Example 336],> 200 nM
7,C[C@]1(C(N)=O)COc2c1cc([C@@](O)(CNC(=O)c1ccc3nc(NC(=O)[C@@H](N)CO)sc3c1)C(F)(F)F)nc2-c1ccc(F)cc1 [Example 187],< 200 nM
8,COc1cc(C(=O)NC[C@](O)(c2cc3c(c(-c4ccc(F)cc4)n2)OC[C@]3(C)C(N)=O)C(F)(F)F)nc2cc(C)nn12 [Example 180],> 200 nM
9,C[C@]1(C(N)=O)COc2c1cc([C@@](O)(CNC(=O)c1cnn(-c3ccc(F)cc3)c1)C(F)(F)F)nc2-c1ccc(F)cc1 [Example 451],> 200 nM
10,C[C@]1(C(N)=O)COc2c1cc([C@@](O)(CNC(=O)c1ccnc3ccccc13)C(F)(F)F)nc2-c1ccc(F)cc1 [Example 399],> 200 nM
11,NC(=O)[C@@]1(CF)COc2c1cc([C@@](O)(CNC(=O)c1cc(F)c3nc(N)sc3c1)C(F)(F)F)nc2-c1ccc(F)cc1 [Example 290],< 200 nM
12,C[C@]1(C(N)=O)COc2c1cc([C@@](O)(CNC(=O)c1ccn3cc(C4CC4)nc3c1)C(F)(F)F)nc2-c1ccc(F)cc1 [Example 33],> 200 nM
13,C[C@]1(C(N)=O)COc2c1cc([C@@](O)(CNC(=O)c1cnc3[nH]ccc3c1Cl)C(F)(F)F)nc2-c1ccc(F)cc1 [Example 333],> 200 nM
14,COc1cnc2ccc(C(=O)NC[C@](O)(c3cc4c(c(-c5ccc(F)cc5)n3)OC[C@]4(C)C(N)=O)C(F)(F)F)cc2c1 [Example 229],< 200 nM
15,C[C@]1(C(N)=O)COc2c1cc([C@@](O)(CNC(=O)c1c[nH]nc1-c1ccccc1)C(F)(F)F)nc2-c1ccc(F)cc1 [Example 446],> 200 nM
16,C[C@]1(C(N)=O)COc2c1cc([C@@](O)(CNC(=O)c1cc3cnccc3[nH]1)C(F)(F)F)nc2-c1ccc(F)cc1 [Example 370],< 200 nM
17,Cc1ccc2cc(C(=O)NC[C@](O)(c3cc4c(c(-c5ccc(F)cc5)n3)OC[C@]4(C)C(N)=O)C(F)(F)F)[nH]c2c1 [Example 385],> 200 nM
18,C[C@]1(C(N)=O)COc2c1cc([C@@](O)(CNC(=O)c1sc3ccccc3c1Cl)C(F)(F)F)nc2-c1ccc(F)cc1 [Example 419],> 200 nM
19,C[C@@H](O)COc1ccc(C(=O)NC[C@](O)(c2cc3c(c(-c4ccc(F)cc4)n2)OC[C@@]3(CF)C(N)=O)C(F)(F)F)cc1OC1CC1 [Example 293],> 200 nM

row,SMILES,EC50
1,C[C@]1(C(N)=O)COc2c1cc([C@@](O)(CNC(=O)c1nc3cc(F)ccc3[nH]1)C(F)(F)F)nc2-c1ccc(F)cc1 [Example 405],> 200 nM
2,CC[C@@]1(C(N)=O)COc2c1cc([C@@](O)(CNC(=O)c1cc(OC)c3nn(C4CC4)cc3c1)C(F)(F)F)nc2-c1ccc(F)cc1 [Example 463],< 200 nM
3,COc1cc(C(=O)NC[C@](O)(c2cc3c(c(-c4ccc(F)c(Cl)c4)n2)OC[C@]3(C)C(N)=O)C2CC2)cn2cc(C3CC3)nc12 [Example 634],< 200 nM
4,NC(=O)C1(C(F)F)COc2c1cc([C@@](O)(CNC(=O)c1cc(F)c3nc(N)sc3c1)C(F)(F)F)nc2-c1ccc(F)cc1 (stereo partly drawn) [Example 258],< 200 nM
5,Cc1cc(C(=O)NC[C@](O)(c2cc3c(c(-c4ccc(F)cc4)n2)OC[C@]3(C)C(N)=O)C(F)(F)F)no1 [Example 381],> 200 nM
6,C[C@@H](O)COc1ccc(C(=O)NC[C@](O)(c2cc3c(c(-c4ccc(F)cc4)n2)OC[C@]3(C(N)=O)C2CC2)C(F)(F)F)cc1OC1CC1 [Example 279],> 200 nM
7,C[C@]1(C(N)=O)COc2c1cc([C@@](O)(CNC(=O)c1csc(-c3ccccc3)n1)C(F)(F)F)nc2-c1ccc(F)cc1 [Example 482],> 200 nM
8,COc1cc(C(=O)NC[C@](O)(c2cc3c(c(-c4ccc(F)cc4)n2)OC[C@]3(C(N)=O)C2CC2)C(F)(F)F)cn2cc(C3CC3)nc12 [Example 273],> 200 nM
9,COc1cc(C(=O)NC[C@](O)(c2cc3c(c(-c4ccc(F)cc4)n2)OCC3(C(N)=O)C(F)F)C(F)(F)F)cc2cc(Cl)c(C)nc12 (stereo partly drawn) [Example 256],< 200 nM
10,Cc1cc(C(=O)NC[C@](O)(c2cc3c(c(-c4ccc(F)cc4)n2)OC[C@]3(C)C(N)=O)C(F)(F)F)cc2nc[nH]c12 [Example 194],< 200 nM
11,C[C@]1(C(N)=O)COc2c1cc([C@@](O)(CNC(=O)c1cn3cc(Cl)ccc3n1)C(F)(F)F)nc2-c1ccc(F)cc1 [Example 808],< 200 nM
12,[2H]C([2H])([2H])NC(=O)Nc1cc(C(=O)NC[C@](O)(c2cc3c(c(-c4ccc(F)cc4)n2)OC[C@]3(C)C(N)=O)C(F)(F)F)cc2ccc(C)nc12 [Example 330],> 200 nM
13,COc1cc(C(=O)NC[C@](O)(c2cc3c(c(-c4ccc(F)cc4)n2)OCC3(CF)C(N)=O)C(F)(F)F)cc2cn(C3CC3)nc12 (stereo partly drawn) [Example 295],< 200 nM
14,COc1ccc(-n2cc(C(=O)NC[C@](O)(c3cc4c(c(-c5ccc(F)cc5)n3)OC[C@]4(C)C(N)=O)C(F)(F)F)cn2)cc1 [Example 450],> 200 nM
15,COc1cc(C(=O)NC[C@](O)(c2cc3c(c(-c4ccc(F)cc4)n2)OC[C@]3(C(N)=O)C2CC2)C(F)(F)F)ccc1OC1CC1 [Example 277],> 200 nM
16,Cc1oncc1C(=O)NC[C@](O)(c1cc2c(c(-c3ccc(F)cc3)n1)OC[C@]2(C)C(N)=O)C(F)(F)F [Example 356],> 200 nM
17,Cc1c(C(=O)NC[C@](O)(c2cc3c(c(-c4ccc(F)cc4)n2)OC[C@]3(C)C(N)=O)C(F)(F)F)cnn1-c1ccccc1 [Example 458],< 200 nM
18,Cn1nc(F)c2cc(C(=O)NC[C@](O)(c3cc4c(c(-c5ccc(F)cc5)n3)OC[C@]4(C)C(N)=O)C(F)(F)F)ccc21 [Example 31],> 200 nM
19,C[C@]1(C(N)=O)COc2c1cc([C@@](O)(CNC(=O)c1nc3ccccc3[nH]1)C(F)(F)F)nc2-c1ccc(F)cc1 [Example 420],> 200 nM
